Results: patent US20260262643A1, “HERBICIDAL BENZOXAZINES” (FMC CORPORATION, priority 2022, published 2026)

Tests used:
wheat [1] = experiment: Test C postemergence; type: in vivo, Triticum aestivum; settings: 125 g ai/ha, postemergence, 10 days; 0 to 100 scale, 0 no effect, 100 complete control
Outline: (§1)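 Greenhouse herbicide screen, 10-day duration. Test chemicals in solvent/surfactant blend were sprayed onto soil at sowing (pre) or onto 2–10 cm seedlings at one to two leaves (post); injury scored visually against controls, 0 no effect to 100 complete control.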

ryegrass, Italian [2] = experiment: Test C postemergence; type: in vivo, Lolium multiflorum; settings: 125 g ai/ha, postemergence, 10 days; 0 to 100 scale, 0 no effect, 100 complete control
Outline: as §1

foxtail, giant [3] = experiment: Test C postemergence; type: in vivo, Setaria faberi; settings: 10 days
Outline: as §1

soybean [4] = experiment: Test C preemergence; type: in vivo, Glycine max; settings: preemergence, 0 to 100 scale (0 no effect, 100 complete control)
Outline: as §1

pigweed, palmer [5] = experiment: Test C postemergence; type: in vivo, Amaranthus palmeri; settings: 125 g ai/ha, postemergence, 10 days; 0 to 100 scale, 0 no effect, 100 complete control
Outline: as §1

goosegrass [6] = experiment: Test C postemergence; type: in vivo, Eleusine indica; settings: 10 days
Excerpt: (§2) Seeds of plant species selected from barnyardgrass (Echinochloa crusgalli), blackgrass (Alopecurus myosuroides), corn (Zea mays), foxtail, giant (giant foxtail, Setaria faberi), green foxtail (Setaria viridis), goosegrass (Eleusine indica), kochia (Bassia scoparia), oat, wild (wild oat, Avena fatua), pigweed, palmer (palmer amaranth, palmer pigweed, Amaranthus palmeri), Pigweed, Redroot (redroot pigweed, Amaranthus retroflexus), ragweed (common ragweed, Ambrosia artemisiifolia), ryegrass, Italian ([…] ryegrass, Lolium multiflorum), soybean (Glycine max), and wheat (Triticum aestivum) were planted into a blend of loam soil and sand and treated preemergence with a directed soil spray using test chemicals formulated in a non-phytotoxic solvent mixture which included a surfactant. At the same time, plants selected from these crops and weed species and also galium (catchweed bedstraw, Galium aparine) and horseweed (Erigeron canadensis) were planted in pots containing the same blend of loam soil and sand and treated with postemergence applications of test chemicals formulated in the same manner. Plants ranged in height from 2 to 10 cm and were in the one- to two-leaf stage for the postemergence treatment. Treated plants and untreated controls were maintained in a greenhouse for 10 days, after which time all treated plants were compared to untreated controls and visually evaluated for injury. Plant response ratings, summarized in Table C, are based on a 0 to 100 scale where 0 is no effect and 100 is complete control. A dash (-) response means no test result.

goosegrass [7] = experiment: Test C preemergence; type: in vivo, Eleusine indica; settings: preemergence, 0 to 100 scale (0 no effect, 100 complete control)
Excerpt: as §2

soybean [8] = experiment: Test C postemergence; type: in vivo, Glycine max; settings: 125 g ai/ha, postemergence, 10 days; 0 to 100 scale, 0 no effect, 100 complete control
Outline: as §1

ragweed [9] = experiment: Test C preemergence; type: in vivo, Ambrosia artemisiifolia; settings: preemergence, 0 to 100 scale (0 no effect, 100 complete control)
Outline: as §1

oat, wild [10] = experiment: Test C postemergence; type: in vivo, Avena fatua; settings: 125 g ai/ha, postemergence, 10 days; 0 to 100 scale, 0 no effect, 100 complete control
Outline: as §1

kochia [11] = experiment: Test C postemergence; type: in vivo, Bassia scoparia; settings: 125 g ai/ha, postemergence, 10 days; 0 to 100 scale, 0 no effect, 100 complete control
Outline: as §1

sedge, umbrella = experiment: Test D flooded paddy test; type: in vivo, Cyperus difformis; settings: 250 g ai/ha, applied to paddy water, visual rating after 13 to 14 days, scale 0 to 100 (0 no effect, 100 complete control)
Outline: (§3)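 2-leaf plants; flood 3 cm above soil; compound dosed into paddy water; greenhouse 13–14 d; visual rating vs controls, 0–100 (100 = complete control); dash = not tested.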

corn [12] = experiment: Test C preemergence; type: in vivo, Zea mays; settings: preemergence, 0 to 100 scale (0 no effect, 100 complete control)
Outline: as §1

barnyardgrass = experiment: Test D flooded paddy test; type: in vivo, Echinochloa crus-galli; settings: 250 g ai/ha, applied to paddy water, visual rating after 13 to 14 days, scale 0 to 100 (0 no effect, 100 complete control)
Outline: as §3

pigweed, palmer [13] = experiment: Test C preemergence; type: in vivo, Amaranthus palmeri; settings: preemergence, 0 to 100 scale (0 no effect, 100 complete control)
Outline: as §1

horseweed = experiment: Test C postemergence; type: in vivo, Erigeron canadensis; settings: 10 days
Outline: as §1

oat, wild [14] = experiment: Test C preemergence; type: in vivo, Avena fatua; settings: preemergence, 0 to 100 scale (0 no effect, 100 complete control)
Outline: as §1

ragweed [15] = experiment: Test C postemergence; type: in vivo, Ambrosia artemisiifolia; settings: 125 g ai/ha, postemergence, 10 days; 0 to 100 scale, 0 no effect, 100 complete control
Outline: as §1

ducksalad = experiment: Test D flooded paddy test; type: in vivo, Heteranthera limosa; settings: 250 g ai/ha, applied to paddy water, visual rating after 13 to 14 days, scale 0 to 100 (0 no effect, 100 complete control)
Outline: as §3

wheat [16] = experiment: Test C preemergence; type: in vivo, Triticum aestivum; settings: preemergence, 0 to 100 scale (0 no effect, 100 complete control)
Outline: as §1

kochia [17] = experiment: Test C preemergence; type: in vivo, Bassia scoparia; settings: preemergence, 0 to 100 scale (0 no effect, 100 complete control)
Outline: as §1

ryegrass, Italian [18] = experiment: Test C preemergence; type: in vivo, Lolium multiflorum; settings: preemergence, 0 to 100 scale (0 no effect, 100 complete control)
Outline: as §1

rice = experiment: Test D flooded paddy test; type: in vivo, Oryza sativa; settings: 250 g ai/ha, applied to paddy water, visual rating after 13 to 14 days, scale 0 to 100 (0 no effect, 100 complete control)
Outline: as §3

galium = experiment: Test C postemergence; type: in vivo, Galium aparine; settings: 10 days
Outline: as §1

blackgrass [19] = experiment: Test C preemergence; type: in vivo, Alopecurus myosuroides; settings: 0 to 100 scale (0 no effect, 100 complete control)
Outline: as §1

corn [20] = experiment: Test C postemergence; type: in vivo, Zea mays; settings: 10 days
Outline: as §1

foxtail, giant [21] = experiment: Test C preemergence; type: in vivo, Setaria faberi; settings: preemergence, 0 to 100 scale (0 no effect, 100 complete control)
Outline: as §1

blackgrass [22] = experiment: Test C postemergence; type: in vivo, Alopecurus myosuroides; settings: 10 days
Outline: as §1

[23] = 125 g ai/ha, postemergence, 0 to 100 scale, 0 no effect, 100 complete control
[24] = Postemergence, 500 g ai/ha, visual 0 to 100 scale (0 no effect, 100 complete control)

Cc1cccc2c1O[C@@H](C)CN2C(=O)c1cccc(-n2nccn2)c1 [Compound 282]
0: Plant response rating, Wheat (wheat [1]) | Plant response rating, Ryegrass, Italian (ryegrass, Italian [2]) | Plant response rating, Foxtail, Giant (foxtail, giant [3]; [23]) | Plant response rating, Foxtail, Giant (foxtail, giant [3]; [24]) | Soybean plant response rating (soybean [4]; 500 g ai/ha) | Soybean plant response rating (soybean [4]; Test C, 125 g ai/ha) | Plant response rating, Pigweed, Palmer (pigweed, palmer [5]) | Plant response rating, Goosegrass (goosegrass [6]; [23]) | Plant response rating, Goosegrass (goosegrass [6]; [24]) | Goosegrass plant response rating (goosegrass [7]; 500 g ai/ha) | Goosegrass plant response rating (goosegrass [7]; Test C, 125 g ai/ha) | Plant response rating, Soybean (soybean [8]) | Ragweed plant response rating (ragweed [9]; 500 g ai/ha) | Ragweed plant response rating (ragweed [9]; Test C, 125 g ai/ha) | Plant response rating, Oat, Wild (oat, wild [10]) | Plant response rating, Kochia (kochia [11]) | Plant response rating, Sedge, Umbrella (Flood) (sedge, umbrella) | Corn plant response rating (corn [12]; 500 g ai/ha) | Corn plant response rating (corn [12]; Test C, 125 g ai/ha) | Plant response rating, Barnyardgrass (Flood) (barnyardgrass) | Pigweed, Palmer plant response rating (pigweed, palmer [13]; 500 g ai/ha) | Pigweed, Palmer plant response rating (pigweed, palmer [13]; Test C, 125 g ai/ha) | Plant response rating, Horseweed (horseweed; [23]) | Plant response rating, Horseweed (horseweed; [24]) | Oat, Wild plant response rating (oat, wild [14]; 500 g ai/ha) | Oat, Wild plant response rating (oat, wild [14]; Test C, 125 g ai/ha) | Plant response rating, Ragweed (ragweed [15]) | Plant response rating, Ducksalad (Flood) (ducksalad) | Wheat plant response rating (wheat [16]; 500 g ai/ha) | Wheat plant response rating (wheat [16]; Test C, 125 g ai/ha) | Kochia plant response rating (kochia [17]; 500 g ai/ha) | Kochia plant response rating (kochia [17]; Test C, 125 g ai/ha) | Ryegrass, Italian plant response rating (ryegrass, Italian [18]; 500 g ai/ha) | Ryegrass, Italian plant response rating (ryegrass, Italian [18]; Test C, 125 g ai/ha) | Plant response rating, Rice (Flood) (rice) | Plant response rating, Galium (galium; [23]) | Plant response rating, Galium (galium; [24]) | Plant response rating, Blackgrass (blackgrass [19]; Preemergence, 500 g ai/ha, visual rating after 10 days) | Blackgrass plant response rating (blackgrass [19]; Test C, preemergence, 125 g ai/ha) | Plant response rating, Corn (corn [20]; [23]) | Plant response rating, Corn (corn [20]; [24]) | Foxtail, Giant plant response rating (foxtail, giant [21]; 500 g ai/ha) | Foxtail, Giant plant response rating (foxtail, giant [21]; Test C, 125 g ai/ha) | Plant response rating, Blackgrass (blackgrass [22]; [23]) | Plant response rating, Blackgrass (blackgrass [22]; [24])
